The text below walks through data of patent US7109193B2, “Tricyclic diazepines tocolytic oxytocin receptor antagonists” (Wyeth, priority 2001, dated 2006).

As a reminder, the inhibition is the change of the read-out against control, counted positive when it falls.

The target of the experiment is T1, human vasopressin V2 receptor subtype (Homo sapiens, UniProt P30518).
T1 construct: host or cells: CHO cells (pZeoSV vector)
Description: Vasopressin binding in Chinese Hamster Ovary cell membranes expressing human vasopressin V2 subtype receptors. The conditions noted are these: 100 nM, CHO cell membranes, [3H]arginine vasopressin, values without parentheses. The procedure:
Vasopressin Binding in Chinese Hamster Ovary Cell Membranes Expressing Human Vasopressin V2 Subtype Receptors
Chinese Hamster Ovary (CHO) cells stably transfected with the human V2 subtype receptors were obtained from M. Thibonnier, Case Western Reserve University School of Medicine, Cleveland, Ohio.
A. Passaging and Amplification of Cells:
The trypsin is removed by aspiration and the cells dislodged by tapping. Cell Culture medium (e.g. 30 mL for 1:30 split) is immediately added and mixed well to inactivate trypsin. 1 mL of detached cells is added to new culture flasks containing fresh Cell Culture medium (e.g. into 25 mL per T-150 flask), and mixed gently. The cells are incubated at 37° C. in 5% CO2. The medium is changed at 3 to 4 day interval (or as appropriate). […] All steps are done under sterile conditions. B. Membrane Preparation: The cells are washed twice gently with Hank's Balanced Salt solution (e.g. use 10 mL per T-150 flask). […] The contents are transferred to centrifuge tubes (50 mL) kept in ice bath. All subsequent steps are done at 4° C. The tubes are centrifuged at 300×g for 15 min (1380 rpm on SORVAL, Model RT6000D, using the rotor for 50 mL tubes). The supernatant is discarded and the cells suspended in homogenizing buffer (10 mM Tris-HCl containing 0.25 M sucrose and 1 mM EDTA, pH 7.4) ensuring that the volume of the buffer is about ten times the volume of the cell pellet. The cells are pooled into a centrifuge tube (50 mL) and homogenized with a Polytron at setting 6 for 10 sec. The homogenate is transferred into a Potter-Elvjehm homogenizer and homogenized with 3 strokes. The homogenate is centrifuged at 1500×g for 60 min at 4° C. (3100 rpm using SORVAL, model RT6000D, using the rotor for 50 mL tubes). The pellet is discarded. The supernatant is centrifuged at 100,000×g for 60 min. at 4° C. (Beckman L8-80M ultracentrifuge; spin at 37,500 rpm with rotor type 70 Ti for 50 mL tubes; 38,000 rpm with type 80Ti for 15 mL tubes; or 35,800 rpm with rotor type 45Ti). The supernantant is discarded and the pellet suspended in 3 to 4 mL of Tris buffer (50 mM TRIS-HCl, pH 7.4). The protein content is estimated by the Bradford or Lowry method. The volume of the membrane suspension is adjusted with the membrane buffer (50 mM Tris-HCl containing 0.1% BSA and 0.1 mM PMSF) to give 3.0 mg/mL (or as appropriate) of protein. The membranes are aliquoted and stored at −70° C. C. Radioligand Binding Assay: In wells of a 96-well format microtiter plate, is added 90, 110 or 130 μL (to make up a final volume of 200 μL) of assay buffer containing 50 mM of Tris-HCl (pH 7.4), […], 1 mg % aprotinin, 1 mg % leupeptin, 2 mg % 1,10-phenanthroline, 10 mg % trypsin inhibitor, and 0.1 mM PMSF. The inhibitors are added on the day of the experiment. The components are mixed at room temperature, and then kept in ice bath following adjustment of the pH to 7.4. […] For vasopressin and other peptide ligands 20 μL of 50% DMSO is added and the assay buffer volume is adjusted accordingly. To each well is added 50 μL of frozen membrane suspension thawed immediately prior to use and diluted in assay buffer to the required concentration (equivalent to 25 to 50 μg of protein/well as needed). 20 μL of 8 nM [^3H]arginine vasopressin ligand in the assay buffer, prepared just before use is added and incubated at room temperature for 60 min. shaking the plate on a mechanical shaker for the first 15 min. The incubation is stopped by rapid filtration of the plate contents followed by wash with ice-cold buffer (50 mM Tris-HCl, pH 7.4) using a cell harvester (Tomtek and Printed filtermat-B filter paper). The filter paper is thoroughly dried (7–12 min. in a microwave oven) and impregnated with MeltiLex B/H melt-on scintillation wax sheets and the radioactivity counted in a betaplate scintillation counter.

T1 sequence (P30518 whole entry): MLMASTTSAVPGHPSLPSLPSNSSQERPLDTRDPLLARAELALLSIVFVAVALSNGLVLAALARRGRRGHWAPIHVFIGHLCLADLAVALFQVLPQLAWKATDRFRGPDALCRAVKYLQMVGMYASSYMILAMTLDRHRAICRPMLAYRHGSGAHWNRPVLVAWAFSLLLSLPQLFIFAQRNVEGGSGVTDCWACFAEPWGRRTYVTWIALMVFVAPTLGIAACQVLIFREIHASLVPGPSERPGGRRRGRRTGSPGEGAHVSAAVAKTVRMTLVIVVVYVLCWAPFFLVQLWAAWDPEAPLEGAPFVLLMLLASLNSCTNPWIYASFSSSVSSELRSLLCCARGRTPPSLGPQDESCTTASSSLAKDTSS

Regarding `Cc1cc(C(=O)N2Cc3ccc(C(=O)N(CCCN(C)C)CCCN(C)C)n3Cc3ccccc32)ccc1-c1ccccc1C(F)(F)F` [Example 3, 10-[(2-Methyl-2′-trifluoromethyl-[1,1′-biphenyl]-4-yl)-carbonyl]-10,11-dihydro-5H-pyrrolo[2,1-c][1,4]benzodiazepine-3-carboxylic acid bis-(3-dimethylamino-propyl)-amide], the inhibition at 0.1 µM came out at 22%.

On to `Cc1cccc(N2CCN(C(=O)c3ccc4n3Cc3ccccc3N(C(=O)c3ccc(-c5ccccc5C(F)(F)F)c(C)c3)C4)CC2C)c1` (centres unmarked) [Example 5, [3-Methyl-4-(3-methyl-phenyl)-piperazin-1-yl]-[10-(2-methyl-2′-trifluoromethyl-[1,1′-biphenyl]-4-yl)carbonyl]-10,11-dihydro-5H-pyrrolo[2,1-c][1,4]benzodiazepin-3-yl-methanone], for which the “V2 % inhibition @ 100 nM” value was found to be 3%.

For the molecule `COc1cc2c(cc1OC)N(C(=O)c1ccc(-c3ccccc3C(F)(F)F)c(C)c1)Cc1ccc(C(=O)N(C)CCCN(C)C)n1C2.Cl` [Example 13, N-Methyl-[N-(3-dimethylamino)propyl]-7,8-dimethoxy-10-{[2-methyl-2′-(trifluoromethyl)[1,1′-biphenyl]-4-yl]carbonyl}-10,11-dihydro-5H-pyrrolo[2,1-c][1,4]benzodiazepine-3-carboxamide hydrochloride salt], the “V2 % inhibition @ 100 nM” value is recorded as −4%.

Turning to `COc1cc2c(cc1OC)N(C(=O)c1ccc(-c3ccccc3C(F)(F)F)c(C)c1)Cc1ccc(C(=O)N3CCC(=O)CC3)n1C2` [Example 14, 7,8-Dimethoxy-10-{[2-methyl-2′-(trifluoromethyl)-[1,1′-biphenyl]-4-yl]carbonyl}-[(10,11-dihydro-5H-pyrrolo[2,1-c][1,4]benzodiazepin-3-yl)carbonyl]-4-piperidinone], the “V2 % inhibition @ 100 nM” value is on record as −3%.

`COC(=O)c1ccc2c(c1)N(C(=O)c1ccc(-c3ccccc3C(F)(F)F)c(C)c1)Cc1cccn1C2` [Example 26, Methyl 10-{[2-methyl-2′-trifluoromethyl-[1,1′-biphenyl]-4-yl]carbonyl}-10,11-dihydro-5H-pyrrolo[2,1-c][1.4]benzodiazepine-8-carboxylate]: the “V2 % inhibition @ 100 nM” value is on record as 3%.

As for `COc1cc(C(=O)N2Cc3ccc(C(=O)N4CCC[C@H]4CN4CCCC4)n3Cc3ccccc32)ccc1-c1ccccc1Cl` [Example 33, {[10-(2-Methoxy)-2′-chloro-[1,1′-biphenyl]-4-yl]carbonyl}-[(2S)-[(2-pyrrolidin-1-yl)methyl]pyrrolidin-1-yl]-10,11-dihydro-5H-pyrrolo[2,1-c][1,4]benzodiazepin-3-yl-methanone], the “V2 % inhibition @ 100 nM” value was 11%.

On to `Cc1cc(C(=O)N2Cc3ccc(C(=O)NCCCN(C)C)n3Cc3ccccc32)ccc1-c1ccccc1C(F)(F)F` [Example 84, N-[3-(Dimethylamino)propyl]-10-{[2-methyl-2′-(trifluoromethyl)[1,1′-biphenyl]-4-yl]carbonyl}-10,11-dihydro-5H-pyrrolo[2,1-c][1 .4]benzodiazepine-3-carboxamide], for which the “V2 % inhibition @ 100 nM” value came to 11%.

On to `COc1ccccc1-c1ccc(C(=O)N2Cc3ccc(C(=O)N(C)CCCN(C)C)n3Cc3ccccc32)cc1OC` [Example 107, 10-[(2,2′-Dimethoxy[1,1′-biphenyl]-4-yl)carbonyl]-N-[3-(dimethylamino)propyl]-N-methyl-10,11-dihydro-5H-pyrrolo[2,1-c][1,4]benzodiazepine-3-carboxamide], for which the inhibition at 0.1 µM is 19%.

With `COc1cccc(-c2ccc(C(=O)N3Cc4ccc(C(=O)N(C)CCCN(C)C)n4Cc4ccccc43)cc2OC)c1` [Example 108, 10-[(2,3′-Dimethoxy[1,1′-biphenyl]-4-yl)carbonyl]-N-[3-(dimethylamino)propyl]-N-methyl-10,11-dihydro-5H-pyrrolo[2,1-c][1,4]benzodiazepine-3-carboxamide], the inhibition at 0.1 µM was 8%.

`CN(C)CCCN(C)C(=O)c1ccc2n1Cc1ccccc1N(C(=O)c1ccc(-c3cccc4ccccc34)cc1Cl)C2` [Example 109, 10-[2-Chloro-4-(1-naphthyl)benzoyl]-N-[3-(dimethylamino)propyl]-N-methyl-10,11-dihydro-5H-pyrrolo[2,1-c][1,4]benzodiazepine-3-carboxamide]: the inhibition at 0.1 µM was 14%.

Take `COc1ccccc1-c1ccc(C(=O)N2Cc3ccc(C(=O)N4CCC(N5CCCCC5)CC4)n3Cc3ccccc32)cc1C` [Example 112, {10-[(2-Methyl-2′-methoxy[1,1′-biphenyl]-4-yl)carbonyl]-10,11-dihydro-5H-pyrrolo[2,1-c][1,4]benzodiazepin-3-yl}[4-(1-piperidinyl)-1-piperidinyl]methanone]: the inhibition at 0.1 µM amounted to 32%.

On to `Cc1ccccc1-c1ccc(C(=O)N2Cc3ccc(C(=O)N4CCC(N5CCCCC5)CC4)n3Cc3ccccc32)cc1C` [Example 113, {10-[(2-Methyl-2′-methyl[1,1′-biphenyl]-4-yl)carbonyl]-10,11-dihydro-5H-pyrrolo[2,1-c][1,4]benzodiazepin-3-yl}[4-(1-piperidinyl)-1-piperidinyl]methanone], for which the inhibition at 0.1 µM is 9%.

For `COc1cccc(-c2ccc(C(=O)N3Cc4ccc(C(=O)N5CCC(N6CCCCC6)CC5)n4Cc4ccccc43)cc2C)c1` [Example 114, {10-[(2-Methyl-3′-methoxy[1,1′-biphenyl]-4-yl)carbonyl]-10,11-dihydro-5H-pyrrolo[2,1-c][1,4]benzodiazepin-3-yl}[4-(1-piperidinyl)-1-piperidinyl]methanone], the inhibition at 0.1 µM is 22%.

For `Cc1ccccc1-c1ccc(C(=O)N2Cc3ccc(C(=O)N4CCC(N5CCCCC5)CC4)n3Cc3ccccc32)cc1` [Example 115, {10-[(2′-Methyl[1,1′-biphenyl]-4-yl)carbonyl]-10,11-dihydro-5H-pyrrolo[2,1-c][1,4]benzodiazepin-3-yl}[4-(1-piperidinyl)-1-piperidinyl]methanone], the inhibition at 0.1 µM is 12%.

As for `COc1cc(C(=O)N2Cc3ccc(C(=O)N4CCC(N5CCCCC5)CC4)n3Cc3ccccc32)ccc1-c1ccccc1C` [Example 116, {10-[(2-Methoxy-2′-methyl[1,1′-biphenyl]-4-yl)carbonyl]-10,11-dihydro-5H-pyrrolo[2,1-c][1,4]benzodiazepin-3-yl}[4-(1-piperidinyl)-1-piperidinyl]methanone], the inhibition at 0.1 µM is 22%.

For `COc1cccc(-c2cc(OC)c(C(=O)N3Cc4ccc(C(=O)N5CCC(N6CCCCC6)CC5)n4Cc4ccccc43)cc2Cl)c1` [Example 117, {10-[(6-Chloro-3-methoxy-3′-methoxy[1,1′-biphenyl]-4-yl)carbonyl]-10,11-dihydro-5H-pyrrolo[2,1-c][1,4]benzodiazepin-3-yl}[4-(1-piperidinyl)-1-piperidinyl]methanone], the inhibition at 0.1 µM amounted to 14%.

In the case of `COc1cc(C(=O)N2Cc3ccc(C(=O)N4CCC(N5CCCCC5)CC4)n3Cc3ccccc32)ccc1-c1cccc2ccccc12` [Example 118, {10-[3-Methoxy-4-(1-naphthyl)-benzoyl]-10,11-dihydro-5H-pyrrolo[2,1-c][1,4]benzodiazepin-3-yl}[4-(1-piperidinyl)-1-piperidinyl]methanone], the inhibition at 0.1 µM came to 39%.
